According to patent US11034650B2, “Compounds useful for treating a Mannheimia haemolytica or Histophilus somni infection” (Intervet Inc., priority 2016, dated 2021):
Values after ≈ are worked out from the molar mass of the structure shown.

What was measured:
Type in all cases: cell-based
[1] = system: Mannheimia haemolytica MH 6374 (ATCC 33396, reference strain); assay: MIC, broth-microdilution (CLSI VET01-A4), strain MH 6374; conditions: Mannheimia haemolytica strain MH 6374, broth-microdilution; unit assumed
Procedure, shortened: (§1)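 Read-out is unaided visual inspection for turbidity. The minimum inhibitory concentration is the lowest tested level without detectable growth across a two-fold compound series.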

[2] = system: Mannheimia haemolytica MH 12587 (1071, BRD field isolate, macrolide-resistance: erm+, E+); assay: MIC, broth-microdilution (CLSI VET01-A4), strain MH 12587; conditions: Mannheimia haemolytica strain MH 12587, broth-microdilution; unit assumed
Procedure, shortened: as §1

[3] = system: Pasteurella multocida PM 10775 (080130003051, BRD field isolate); assay: MIC, broth-microdilution (CLSI VET01-A4), strain PM 10775; conditions: Pasteurella multocida strain PM 10775, broth-microdilution; unit assumed
Procedure, shortened: as §1

[4] = system: Mannheimia haemolytica MH 13065 (XB0446-6003.9, BRD field isolate); assay: MIC, broth-microdilution (CLSI VET01-A4), strain MH 13065; conditions: Mannheimia haemolytica strain MH 13065, broth-microdilution; unit assumed
Procedure, shortened: as §1

[5] = system: Pasteurella multocida PM 6267 (P 2225 (L386), reference strain, mouse infection strain); assay: MIC, broth-microdilution (CLSI VET01-A4), strain PM 6267; conditions: Pasteurella multocida strain PM 6267, broth-microdilution; unit assumed
Procedure, shortened: as §1

[6] = system: Mannheimia haemolytica MH 6357 (M7/2, reference strain, cattle infection strain); assay: MIC, broth-microdilution (CLSI VET01-A4), strain MH 6357; conditions: Mannheimia haemolytica strain MH 6357, broth-microdilution; unit assumed
Procedure, shortened: as §1

[7] = system: Pasteurella multocida PM 12080 (IV102277-0093, BRD field isolate); assay: MIC, broth-microdilution (CLSI VET01-A4), strain PM 12080; conditions: Pasteurella multocida strain PM 12080, broth-microdilution; unit assumed
Procedure, shortened: as §1

[8] = system: Pasteurella multocida PM 6391 (ATCC 43137, reference strain); assay: MIC, broth-microdilution (CLSI VET01-A4), strain PM 6391; conditions: Pasteurella multocida strain PM 6391, broth-microdilution; unit assumed
Procedure, shortened: as §1

[9] = system: Mannheimia haemolytica MH 10720 (154, BRD field isolate); assay: MIC, broth-microdilution (CLSI VET01-A4), strain MH 10720; conditions: Mannheimia haemolytica strain MH 10720, broth-microdilution; unit assumed
Procedure, shortened: as §1

[10] = system: Mannheimia haemolytica MH 13093 (XB0472-6014.1, BRD field isolate); assay: MIC, broth-microdilution (CLSI VET01-A4), strain MH 13093; conditions: Mannheimia haemolytica strain MH 13093, broth-microdilution; unit assumed
Procedure, shortened: as §1

| MIC PM 10775 [3] [µg/mL] | MIC PM 6267 [5] [µg/mL] | MIC PM 12080 [7] [µg/mL] | MIC PM 6391 [8] [µg/mL] | SMILES | MIC MH 6374 [1] [µg/mL] | MIC MH 12587 [2] [µg/mL] | MIC MH 13065 [4] [µg/mL] | MIC MH 6357 [6] [µg/mL] | MIC MH 10720 [9] [µg/mL] | MIC MH 13093 [10] [µg/mL] |
| --- | --- | --- | --- | --- | --- | --- | --- | --- | --- | --- |
| 0.2 (≈ 0.417 µM) | 0.4 (≈ 0.834 µM) | 0.8 (≈ 1.67 µM) | 1.6 (≈ 3.34 µM) | CSC(C)(C)[C@H](NC(=O)c1ccc(C#Cc2ccc(CNC3CCCC3)cc2)cc1)C(=O)NO [Compound 244] | 6.3 (≈ 13.1 µM) | 6.3 (≈ 13.1 µM) | 3.1 (≈ 6.46 µM) | 3.1 (≈ 6.46 µM) | 1.6 (≈ 3.34 µM) | 6.3 (≈ 13.1 µM) |
| ≤ 0.1 | ≤ 0.1 | ≤ 0.1 | 0.2 (≈ 0.477 µM) | CC(C)[C@H](NC(=O)c1ccc(C#Cc2ccc(CNC3CCC3)cc2)cc1)C(=O)NO [Compound 210] | 3.1 (≈ 7.39 µM) | 6.3 (≈ 15 µM) | 1.6 (≈ 3.81 µM) | 1.6 (≈ 3.81 µM) | 0.8 (≈ 1.91 µM) | 3.1 (≈ 7.39 µM) |
| ≤ 0.1 | 0.2 (≈ 0.421 µM) | 0.2 (≈ 0.421 µM) | 0.8 (≈ 1.68 µM) | CC[C@H](C)[C@H](NC(=O)c1ccc(C#Cc2ccc(CNCc3cccs3)cc2)cc1)C(=O)NO [Compound 182] | 1.6 (≈ 3.36 µM) | 1.6 (≈ 3.36 µM) | 0.8 (≈ 1.68 µM) | 0.4 (≈ 0.841 µM) | 0.2 (≈ 0.421 µM) | 0.8 (≈ 1.68 µM) |
| ≤ 0.1 | ≤ 0.1 | ≤ 0.1 | ≤ 0.1 | CC(C)(O)C(NC(=O)c1ccc(C#Cc2ccc(CNCc3cccs3)cc2)cc1)C(=O)NO (stereo not drawn) [Compound 232] | ≤ 0.1 | 0.4 (≈ 0.838 µM) | ≤ 0.1 | 0.4 (≈ 0.838 µM) | ≤ 0.1 | 0.2 (≈ 0.419 µM) |
| ≤ 0.1 | 0.8 (≈ 1.64 µM) | 0.2 (≈ 0.409 µM) | 0.8 (≈ 1.64 µM) | CC(C)([C@H](NC(=O)c1ccc(C#Cc2ccc(CNCC#N)s2)cc1)C(=O)NO)S(C)(=O)=O [Compound 318] | 0.8 (≈ 1.64 µM) | 1.6 (≈ 3.27 µM) | 0.8 (≈ 1.64 µM) | 0.4 (≈ 0.819 µM) | ≤ 0.1 | 1.6 (≈ 3.27 µM) |
| 0.8 (≈ 1.8 µM) | 6.3 (≈ 14.1 µM) | 0.4 (≈ 0.898 µM) | ≤ 0.1 | CC(=O)C(NC(=O)c1ccc(C#Cc2ccc(CNCc3ccco3)cc2)cc1)C(=O)NO (stereo not drawn) [Compound 410] | 1.6 (≈ 3.59 µM) | 0.4 (≈ 0.898 µM) | 1.6 (≈ 3.59 µM) | 0.8 (≈ 1.8 µM) | 1.6 (≈ 3.59 µM) | 1.6 (≈ 3.59 µM) |
| 0.4 (≈ 0.78 µM) | 1.6 (≈ 3.12 µM) | 0.8 (≈ 1.56 µM) | 0.4 (≈ 0.78 µM) | CSC(C)(C)[C@H](NC(=O)c1ccc(C#Cc2ccc(CNCc3ncc(C)o3)s2)cc1)C(=O)NO [Compound 310] | 0.8 (≈ 1.56 µM) | 3.1 (≈ 6.05 µM) | 1.6 (≈ 3.12 µM) | 1.6 (≈ 3.12 µM) | 0.4 (≈ 0.78 µM) | 1.6 (≈ 3.12 µM) |
| ≤ 0.1 | 0.4 (≈ 0.861 µM) | 0.2 (≈ 0.431 µM) | 0.4 (≈ 0.861 µM) | CC(C)(O)[C@H](NC(=O)c1ccc(C#Cc2ccc(CNCC(F)(F)F)nc2)cc1)C(=O)NO [Compound 333] | 0.8 (≈ 1.72 µM) | 1.6 (≈ 3.44 µM) | 0.8 (≈ 1.72 µM) | 0.4 (≈ 0.861 µM) | ≤ 0.1 | 1.6 (≈ 3.44 µM) |
| ≤ 0.1 | 0.4 (≈ 0.865 µM) | 0.2 (≈ 0.432 µM) | 0.4 (≈ 0.865 µM) | CC(C)(O)[C@H](NC(=O)c1ccc(C#Cc2ccc(CNCc3ccco3)nc2)cc1)C(=O)NO [Compound 332] | 0.4 (≈ 0.865 µM) | 1.6 (≈ 3.46 µM) | 0.8 (≈ 1.73 µM) | 0.4 (≈ 0.865 µM) | ≤ 0.1 | 0.8 (≈ 1.73 µM) |
| ≤ 0.1 | ≤ 0.1 | 0.2 (≈ 0.444 µM) | 0.4 (≈ 0.888 µM) | O=C(N[C@@H](CO)C(=O)NO)c1ccc(C#Cc2ccc(CNCc3nccs3)cc2)cc1 [Compound 213] | 1.6 (≈ 3.55 µM) | 3.1 (≈ 6.88 µM) | 1.6 (≈ 3.55 µM) | 1.6 (≈ 3.55 µM) | 0.8 (≈ 1.78 µM) | 3.1 (≈ 6.88 µM) |
| ≤ 0.1 | ≤ 0.1 | ≤ 0.1 | ≤ 0.1 | CC(C)(C(NC(=O)c1ccc(C#Cc2ccc(CNCc3ccncc3)cc2)cc1)C(=O)NO)[N+](=O)[O-] (stereo not drawn) [Compound 278] | 0.4 (≈ 0.798 µM) | 0.8 (≈ 1.6 µM) | 0.4 (≈ 0.798 µM) | 0.4 (≈ 0.798 µM) | ≤ 0.1 | 0.4 (≈ 0.798 µM) |
| 0.4 (≈ 0.845 µM) | 3.1 (≈ 6.55 µM) | 1.6 (≈ 3.38 µM) | 1.6 (≈ 3.38 µM) | CC(C)(O)[C@H](NC(=O)c1ccc(C#Cc2ccc(CNCc3ccccn3)nc2)cc1)C(=O)NO [Compound 331] | 3.1 (≈ 6.55 µM) | 6.3 (≈ 13.3 µM) | 3.1 (≈ 6.55 µM) | 1.6 (≈ 3.38 µM) | 0.4 (≈ 0.845 µM) | 6.3 (≈ 13.3 µM) |
| 0.4 (≈ 0.79 µM) | 0.8 (≈ 1.58 µM) | ≤ 0.1 | 0.4 (≈ 0.79 µM) | CC(C)(C(NC(=O)c1ccc(C#Cc2ccc(CNCc3cccs3)cc2)cc1)C(=O)NO)[N+](=O)[O-] (stereo not drawn) [Compound 289] | 0.8 (≈ 1.58 µM) | 1.6 (≈ 3.16 µM) | 0.8 (≈ 1.58 µM) | 0.4 (≈ 0.79 µM) | ≤ 0.1 | 0.8 (≈ 1.58 µM) |
| 6.3 (≈ 15 µM) | 100 (≈ 238 µM) | 3.1 (≈ 7.39 µM) | 0.8 (≈ 1.91 µM) | CC(=O)C(NC(=O)c1ccc(C#Cc2ccc(CN3CCCC3)cc2)cc1)C(=O)NO (stereo not drawn) [Compound 403] | 12.5 (≈ 29.8 µM) | 6.3 (≈ 15 µM) | 25 (≈ 59.6 µM) | 25 (≈ 59.6 µM) | 12.5 (≈ 29.8 µM) | 25 (≈ 59.6 µM) |
| ≤ 0.1 | 0.2 (≈ 0.443 µM) | 0.4 (≈ 0.886 µM) | 0.8 (≈ 1.77 µM) | CC[C@H](C)[C@H](NC(=O)c1ccc(C#Cc2ccc(CN(C)CCOC)cc2)cc1)C(=O)NO [Compound 178] | 3.1 (≈ 6.86 µM) | 6.3 (≈ 14 µM) | 1.6 (≈ 3.54 µM) | 1.6 (≈ 3.54 µM) | 0.8 (≈ 1.77 µM) | 3.1 (≈ 6.86 µM) |
| 1.6 (≈ 3.46 µM) | 50 (≈ 108 µM) | 0.4 (≈ 0.865 µM) | 0.4 (≈ 0.865 µM) | CON=C(C)[C@H](NC(=O)c1ccc(C#Cc2ccc(CNC3CCCC3)cc2)cc1)C(=O)NO [Compound 386] | 12.5 (≈ 27 µM) | 1.6 (≈ 3.46 µM) | 12.5 (≈ 27 µM) | 12.5 (≈ 27 µM) | 1.6 (≈ 3.46 µM) | 12.5 (≈ 27 µM) |
| 3.1 (≈ 6.79 µM) | 50 (≈ 110 µM) | 1.6 (≈ 3.5 µM) | 0.8 (≈ 1.75 µM) | CC(=O)C(NC(=O)c1ccc(C#Cc2ccc(CNCc3ccncc3)cc2)cc1)C(=O)NO (stereo not drawn) [Compound 402] | 12.5 (≈ 27.4 µM) | 1.6 (≈ 3.5 µM) | 6.3 (≈ 13.8 µM) | 6.3 (≈ 13.8 µM) | 6.3 (≈ 13.8 µM) | 6.3 (≈ 13.8 µM) |

| SMILES | MIC PM 10775 [3] [µg/mL] | MIC PM 6267 [5] [µg/mL] | MIC PM 12080 [7] [µg/mL] | MIC PM 6391 [8] [µg/mL] | MIC MH 6374 [1] [µg/mL] | MIC MH 12587 [2] [µg/mL] | MIC MH 13065 [4] [µg/mL] | MIC MH 6357 [6] [µg/mL] | MIC MH 10720 [9] [µg/mL] | MIC MH 13093 [10] [µg/mL] |
| --- | --- | --- | --- | --- | --- | --- | --- | --- | --- | --- |
| CC(C)([C@H](NC(=O)c1ccc(C#Cc2ccc(CNCc3ccccc3)cc2)cc1)C(=O)NO)S(C)(=O)=O [C.259] | ≤ 0.1 | ≤ 0.1 | ≤ 0.1 | ≤ 0.1 | 0.4 (≈ 0.75 µM) | 0.8 (≈ 1.5 µM) | 0.4 (≈ 0.75 µM) | 0.8 (≈ 1.5 µM) | ≤ 0.1 | 0.8 (≈ 1.5 µM) |
